“And” between values parts separate entries of the source, which are not always exact repeats. Equal values may be shown once.

Test in all cases: MTT cell death assay, chemotherapeutic with and without MADD siRNA knockdown
The test system of data set [1] is C643 thyroid cancer cells. Format: cell-based, human. The note with it: Sorafinib 0.975 μM, siRNA 10 nM, 48 hours post Sorafinib treatment. The method, then: (§1) Cells are cultured and maintained at 37° C. in a humidified atmosphere containing 5% CO2 as described above. On Day 0, Cells are seeded in […] tissue culture dishes (Corning; Cat Number: 353003) to attain 60-70% confluence. In parallel, cells are also seeded in one 96-well plate (Corning; Cat number: 353072) for analysis of survival before reseeding. After 12-18 hours (Day 1), cells are transfected with Scramble or MADD siRNA at 10 nM concentration. The sequences of siRNAs (double-stranded) used are:
(§2) On Day 4, when cells are properly adhered and retained their shape in 96-well plates, drugs are added. All drugs are diluted in complete media on the same day prior to the addition to the cells. In untreated cells, media is replaced with complete media. Two hundred μl volume of media (with or without drugs) is used for the drug treatment assay. Plates are incubated 24 hours, 48 hours and 72 hours at 37° C. in humidified CO2 incubator.
(§3) An MTT assay is performed to determine relative survival after drug treatment as described above. MTT (3-[4,5-Dimethylthiazol-2-yl]-2,5-diphenyltetrazolium bromide; Thiazolyl blue) is purchased from Sigma Aldrich (Cat number: M5655). MTT is dissolved in sterile DPBS at the concentration of 5 mg/ml and filtered through 0.45 μM syringe filter (Corning; Cat number: 431220). Ten μl of MTT solution is added per well of 96-well plate. Plates are incubated for 2 hours at 37° C. in the humidified CO2 incubator. After 2 hours, media is aspirated using vacuum inside the biosafety hood. Purple colored crystals formed in viable cells are dissolved by adding 100 μl of Dimethyl sulfoxide (Thermo Fisher Scientific; Cat number D128-500) Plates are kept on shaker for 10 minutes for compete dissolution of crystals and absorbance is recorded at 595 nm using Bio-Rad iMark microplate reader. Data is analyzed in MICROSOFT EXCEL® software. Relative survival is calculated with respect to absorbance of control (untreated cells) to determine the effect of transfection as well as combination treatment.
(§4) Each data set takes into account any spontaneous cell death which is observed upon transfection with Scramble siRNA; the amount of spontaneous cell death from Scramble siRNA transfection (baseline) is subtracted from the amount of cell death observed in each siRNA transfection reaction to yield a Net Percent (Net %) cell death after accounting for Scrambled siRNA-induced cell death.

For data set [2], the system named is HTH7 thyroid cancer cells. Format: cell-based. The conditions noted are these: siRNA 10 nM. The method, then: Cells are cultured and maintained at 37° C. in a humidified atmosphere containing 5% CO2 as described above. […] After 12-18 hours (Day 1), cells are transfected with Scramble or MADD siRNA at 10 nM concentration. The sequences of siRNAs (double stranded) used are:
as §2
as §3, with “MTT is dissolved in sterile DPBS at the concentration of 5 mg/ml and filtered through 0.45 μM syringe filter (Corning; Cat number: 431220).” left out
as §4

The test system of the next data set is H2227 lung cancer cells. Type of data set: cell-based. The note with it: siRNA 10 nM. The method, then:
as §1, §2, §3, §4
(§5) Cells are cultured and maintained at 37° C. in a humidified atmosphere containing 5% CO2 as described above. On Day 0, Cells are seeded in […] tissue culture dishes (Corning; Cat Number: 353003) to attain 60-70% confluence. In parallel, cells are also seeded in one 96-well plate (Corning; Cat number: 353072) for analysis of survival before reseeding. After 12-18 hours (Day 1), cells are transfected with Scramble or MADD siRNA at 10 nM concentration. The sequences of siRNAs (double stranded) used are:
(§6) On Day 4, when cells are properly adhered and retained their shape in 96-well plates, drugs are added. Doxorubicin was added at a working concentration of 5.0 nM, 9.375 nM, 0.075 μM, 0.25 μM, 0.5 μM, and 0.8 μM. All drugs are diluted in complete media on the same day prior to the addition to the cells. In untreated cells, media is replaced with complete media. Two hundred μl volume of media (with or without drugs) is used for the drug treatment assay. Plates are incubated 24 hours, 48 hours and 72 hours at 37° C. in humidified CO2 incubator.
(§7) An MTT assay is performed to determine relative survival after drug treatment as described above. MTT (3-[4,5-Dimethylthiazol-2-yl]-2,5-diphenyltetrazolium bromide; Thiazolyl blue) is purchased from Sigma Aldrich (Cat number: M5655). MTT is dissolved in sterile DPBS at the concentration of 5 mg/ml and filtered through […] syringe filter (Corning; Cat number: 431220). Ten μl of MTT solution is added per well of 96-well plate. Plates are incubated for 2 hours at 37° C. in the humidified CO2 incubator. […]

For data set [3], the system named is SU.86.86 pancreatic cancer cells. Type of data set: cell-based. The note with it: siRNA 10 nM. The method, then: as §1, §2, §3, §4, §5, §6, §7
Data set [4] relates to K562 chronic myelogenous leukemia cells. Type of data set: cell-based. The note with it: siRNA 10 nM. The method, then: as §1, §2, §3, §4, §5, §6, §7
Where [5] appears, read: Cisplatin 1.25 μM, 72 hours post Cisplatin treatment.
[6] abbreviates: Cisplatin 5 μM, 24 hours post Cisplatin treatment.
The mark [7] stands for this setting: Doxorubicin 9.375 nM, 48 hours post Doxorubicin treatment.
[8] abbreviates: Gemcitabine 25 nM, 48 hours post Gemcitabine treatment.
[9] abbreviates: Sorafinib 3 μM, 48 hours post Sorafinib treatment.
The mark [10] stands for this setting: Doxorubicin 5 nM, 24 hours post Doxorubicin treatment.
Where [11] appears, read: Sorafinib 1.25 μM, 72 hours post-Sorafinib treatment.
[12] abbreviates: Sorafinib 5 μM, 24 hours post Sorafinib treatment.
The mark [13] stands for this setting: Doxorubicin 0.25 μM, 72 hours post Doxorubicin treatment.
Setting [14] is: Doxorubicin 0.5 μM, 48 hours post Doxorubicin treatment.
The mark [15] stands for this setting: Sorafinib 0.3125 μM, 72 hours post Sorafinib treatment.
[16] abbreviates: Sorafinib 1.25 μM, 48 hours post Sorafinib treatment.
Where [17] appears, read: TRAIL 6.25 ng/ml, 72 hours post TRAIL treatment.
Where [18] appears, read: TRAIL 12.5 ng/ml, 48 hours post TRAIL treatment.

As for “MADD siRNA: siRNA targeting exon 13L of the MADD splice variant of the IG20 gene; SEQ ID NO: 4, 5′-GAUUGUCAUAGAUUCGCCGTT-3′ (chemistry not given here)”, the “Net % cell death after accounting for Scrambled siRNA” value (“Net % cell death after accounting” below) was 13% and 14 − 1 = 13% in data set [1]; 54% and 54 − 0 = 54% in data set [2] (setting [5]); 6% and 6 − 0 = 6% in data set [2] (setting [6]); 0% and 9 − 11 = 0% in data set [3] (setting [10]); 0% and 9 − 11 = 0% in data set [3] (setting [12]); 47% and 59 − 12 = 47% in data set [4] (setting [13]). Besides, the “Net % cell death after accounting” value is 47% and 59 − 12 = 47% in data set [4] (setting [15]); 47% and 59 − 12 = 47% in data set [4] (setting [17]). Besides, the “Observed % Cell death” value in data set [1] came to 14%; in data set [2] (setting [5]), 54%; in data set [2] (setting [6]) it was 6%; in the data set on H2227 lung cancer cells (setting [7]), 35%; in the data set with H2227 lung cancer cells (setting [8]), 35%; in the data set with H2227 lung cancer cells (setting [9]), 35%. Besides, the “Observed % Cell death” value is 9% in data set [3] (setting [10]); 41% in data set [3] (setting [11]); 9% in data set [3] (setting [12]); 59% in data set [4] (setting [13]); 53% in data set [4] (setting [14]); 59% in data set [4] (setting [15]). The “Observed % Cell death” value in data set [4] (setting [16]) is 53%; in data set [4] (setting [17]), 59%; in data set [4] (setting [18]), 53%.

Regarding “Scrambled siRNA: non-specific Scramble siRNA, negative control; SEQ ID NO: 5, 5′-UUGCUAAGCGUCGGUCAAUTT-3′ (chemistry not given here)”, the “Net % cell death after accounting” value in data set [1] was 1 − 1 = 0%; in data set [2] (setting [5]), 0 − 0 = 0%; in data set [2] (setting [6]), 0 − 0 = 0%; with H2227 lung cancer cells (setting [7]) it was 28 − 28 = 0%; in the data set with H2227 lung cancer cells (setting [8]) it was 28 − 28 = 0%; in the data set on H2227 lung cancer cells (setting [9]), 28 − 28 = 0%. The “Net % cell death after accounting” value in data set [3] (setting [10]) is on record as 11 − 11 = 0%; in data set [3] (setting [11]), 28 − 28 = 0%; in data set [3] (setting [12]), 11 − 11 = 0%; in data set [4] (setting [13]), 12 − 12 = 0%; in data set [4] (setting [14]) it was 49 − 49 = 0%; in data set [4] (setting [15]) it was 12 − 12 = 0%. Further, the “Net % cell death after accounting” value in data set [4] (setting [16]) is listed as 49 − 49 = 0%; in data set [4] (setting [17]), 12 − 12 = 0%; in data set [4] (setting [18]), 49 − 49 = 0%. Moreover, the “Observed % Cell death” value was 1% in data set [1]; 0% in data set [2] (setting [5]); 0% in data set [2] (setting [6]); 28% in the data set with H2227 lung cancer cells (setting [7]); 28% in the data set with H2227 lung cancer cells (setting [8]); 28% in the data set on H2227 lung cancer cells (setting [9]). In addition, the “Observed % Cell death” value in data set [3] (setting [10]) worked out at 11%; in data set [3] (setting [11]) it was 28%; in data set [3] (setting [12]), 11%; in data set [4] (setting [13]), 12%; in data set [4] (setting [14]) it was 49%; in data set [4] (setting [15]) it was 12%. Moreover, the “Observed % Cell death” value in data set [4] (setting [16]) is recorded as 49%; in data set [4] (setting [17]), 12%; in data set [4] (setting [18]), 49%.

In the case of `CNC(=O)c1cc(Oc2ccc(NC(=O)Nc3ccc(Cl)c(C(F)(F)F)c3)cc2)ccn1` [Sorafinib], the “Net % cell death after accounting” value in data set [1] amounted to 3%; with H2227 lung cancer cells (setting [9]) it was 18%; in data set [3] (setting [11]), 0%; in data set [3] (setting [12]), 17%; in data set [4] (setting [15]) it was 0%; in data set [4] (setting [16]) it was 0%. The “Observed % Cell death” value amounted to 3% in data set [1]; 18% with H2227 lung cancer cells (setting [9]); 0% in data set [3] (setting [11]); 17% in data set [3] (setting [12]); 0% in data set [4] (setting [15]); 0% in data set [4] (setting [16]).

B1: TRAIL: cytotoxic protein which induces apoptosis in tumor cells, but not in normal cells (protein, UniProt P50591 1-281, looked up)
Tumor necrosis factor ligand …: MAMMEVQGGPSLGQTCVLIVIFTVLLQSLCVAVTYVYFTNELKQMQDKYSKSGIACFLKEDDSYWDPNDEESMNSPCWQVKWQLRQLVRKMILRTSEETISTVQEKQQNISPLVRERGPQRVAAHITGTRGRSNTLSSPNSKNEKALGRKINSWESSRSGHSFLSNLHLRNGELVIHEKGFYYIYSQTYFRFQEEIKENTKNDKQMVQYIYKYTSYPDPILLMKSARNSCWSKDAEYGLYSIYQGGIFELKENDRIFVSVTNEHLIDMDHEASFFGAFLVG
With B1, the “Net % cell death after accounting” value in data set [4] (setting [17]) and in data set [4] (setting [18]) was 0% each time. The “Observed % Cell death” value in data set [4] (setting [17]) and in data set [4] (setting [18]) was 0% in each case.

For the origin of these results see US11273172B2, “Synergistic combination of oligonucleotides and chemotherapeutic for treating cancer” (THE BOARD OF TRUSTEES OF THE UNIVERSITY OF ILLINOIS, priority 2017, dated 2022).
